Here are results for one compound from US20190307728A1, “METHODS OF TREATMENT WITH A 2,4,5-TRISUBSTITUTED 1,2,4-TRIAZOLONE” (Bayer Pharma Aktiengesellschaft, priority 2018, published 2019).

The structures appear in SMILES notation. Bounds are passed on as bounds.

Common to all, as to assay: Cell proliferation panel assay
What all share (assay type): cell-based

One assay has as its system Colo 320DM. Particulars: Homo sapiens, 72 h, Colorectal carcinoma, 3-day incubation, read-out: Cell Count IC50.
In a further assay the test system is A498. Particulars: Homo sapiens, 72 h, A498, Renal cell carcinoma, 3-day incubation. As to the method:
(§1) Cells were grown in RPMI 1640, 10% FBS, 2 mM L-alanyl-L-glutamine, 1 mM Na pyruvate or a special medium. Cells were seeded into 384-well plates and incubated in a humidified atmosphere of 5% CO2 at 37° C. Compounds were added the day following cell seeding. At the same time, a time zero untreated cell plate was generated. After a 3-day incubation period, cells were fixed and stained to allow fluorescence imaging of nuclei.
(§2) Compounds were serially diluted in half-log steps from the highest test concentration 10 μM, and assayed over 10 concentrations with a maximum assay concentration of 0.1% DMSO. Automated fluorescence microscopy was carried out using a Molecular Devices ImageXpress Micro XL high-content imager, and images were collected with a 4× objective. 16-bit TIFF images were acquired and analyzed with MetaXpress 5.1.0.41 software.
(§3) Cell proliferation was measured by the fluorescence intensity of an incorporated nuclear dye. The output is referred to as the relative cell count, where the measured nuclear intensity is transformed to percent of control (POC) using the following formula: […]
(§4) Cellular response parameters were calculated using nonlinear regression to a sigmoidal single-site dose response model:
(§5) Where y is a response measured at concentration x, A and B are the lower and upper limits of the response, C is the concentration at the response midpoint (EC50), and D is the Hill Slope (Fallahi-Sichani, M., S. Honardejad, L. M. Heiser, J. W. Gray, and P. K. Sorger (2013). Metrics other than potency reveal systematic variation in responses to cancer drugs. Nat. Chem. Biol. 9: 708-714.).
(§6) Cell count IC50 is the test compound concentration at 50% of maximal possible response. EC50 is the test compound concentration at the curve inflection point or half the effective response (parameter C of the fitted curve solution).

In the next assay the test system is PANC-1. Particulars: Homo sapiens, 72 h, PANC-1, Pancreatic cancer, 3-day incubation. As to the method:
as §1, §2, §3, §4, §5, §6

A further assay concerns ARH-77. Particulars: Homo sapiens, 72 h; ARH-77, Leukemia, 3-day incubation; read-out: Cell Count EC50.
The next assay deals with CEM-C1. Particulars: 72 h; CEM-C1, Leukemia, 3-day incubation; read-out: Cell Count EC50.
The next assay relates to CaOV3. Particulars: Homo sapiens, Caov-3, 72 h; CaOV3, Ovarian carcinoma, 3-day incubation; read-out: Cell Count IC50.
A further assay has as its system DMS114. Particulars: Homo sapiens, DMS-114, 72 h; DMS114, Lung cancer, 3-day incubation; read-out: Cell Count IC50.
The subject of the next assay is G-401. Particulars: Homo sapiens, 72 h; G-401, Kidney cancer, 3-day incubation; read-out: Cell Count IC50.
The next assay has as its system HT-29. Particulars: Homo sapiens, 72 h; HT-29, Colorectal carcinoma, 3-day incubation; read-out: Cell Count IC50.
The next assay concerns MEG01. Particulars: Homo sapiens, MEG-01, 72 h; MEG01, Leukemia, 3-day incubation; read-out: Cell Count EC50.
Another assay has as its system MHH-PREB-1. Particulars: Homo sapiens, 72 h; MHH-PREB-1, Lymphoma, 3-day incubation; read-out: Cell Count IC50.
The next assay deals with Mia PaCa-2. Particulars: Homo sapiens, 72 h; Mia PaCa-2, Pancreatic cancer, 3-day incubation; read-out: Cell Count IC50.
A further assay deals with MV-4-11. Particulars: Homo sapiens, MV4-11, 72 h; MV-4-11, Leukemia, 3-day incubation; read-out: Cell Count IC50.
The next assay deals with SU.86.86. Particulars: Homo sapiens, 72 h; SU.86.86, Pancreatic cancer, 3-day incubation; read-out: Cell Count IC50.
The next assay has as its system U266B1. Particulars: 72 h; U266B1, Multiple Myeloma, 3-day incubation; read-out: Cell Count IC50.

Turning to `CCn1c(CO)nn(-c2cc(O[C@@H](C)C(F)(F)F)c(C(=O)Nc3c(F)cccc3Cl)cc2F)c1=O` [Example 1, N-(2-chloro-6-fluorophenyl)-4-[4-ethyl-3-(hydroxymethyl)-5-oxo-4,5-dihydro-1H-1,2,4-triazol-1-yl]-5-fluoro-2-{[(2S)-1,1,1-trifluoropropan-2-yl]oxy}benzamide], the IC50 in the assay on Colo 320DM is 5.1 nM; in the assay on A498 (read-out: Cell Count IC50), over 10 µM; in the assay on PANC-1 (read-out: Cell Count IC50), over 10 µM; in the assay on CaOV3, over 10 µM; in the assay on DMS114, over 10 µM; in the assay on G-401, over 10 µM. Also, the IC50 was 11 nM in the assay with HT-29; 0.83 nM in the assay on MHH-PREB-1; over 10 µM with Mia PaCa-2; 1.2 nM with MV-4-11; over 10 µM in the assay on SU.86.86; over 10 µM with U266B1. Also, the 50% effective concentration (EC50) was over 10 µM in the assay on A498 (read-out: Cell Count EC50); 3.5 nM in the assay with PANC-1 (read-out: Cell Count EC50); 0.92 nM with ARH-77; 0.91 nM in the assay on CEM-C1; 0.66 nM in the assay with MEG01.

Broadly, the IC50 is the point on the concentration scale where inhibition reaches its midpoint. One may read the EC50 as the midpoint of the concentration-response curve.
